# Laboratory results reported in patent US20080033031A1, “ANTIBIOTIC COMPOUNDS, COMPOSITIONS AND METHODS OF TREATMENT” (priority 2004, published 2008).
# Where two headings read alike, the source gives them in different places.
# Assays:
# S. aureus ATCC 29213 = assay: MIC against S. aureus ATCC 29213; assay type: cell-based, Staphylococcus aureus
# Description: (§1) The microbiological activity of clindamycin analogs was evaluated by measuring the minimum inhibitory concentrations (MIC) of each compound against Staphylococcus aureus (S. aureus) and Propionibacterium acnes (P. acnes). These two microorganisms were selected, as they are commonly known to be the contributing factors for acne. The compounds evaluated were the following: • a. […] Clindamycin sulfone (CSO2) and its salts • d. Clindamycin phosphate • e.
# P. acnes ATCC 11827 = assay: MIC against P. acnes ATCC 11827; assay type: cell-based, Propionibacterium acnes
# Description: as §1
# S. aureus ATCC 6538 = assay: MIC against S. aureus ATCC 6538; assay type: cell-based; details: Staphylococcus aureus, ATCC6538
# Description: as §1
# P. acnes ATCC 1127 = assay: MIC against P. acnes ATCC 1127; assay type: cell-based, Propionibacterium acnes; details: Cutibacterium acnes, ATCC1127
# Description: as §1
# [1] = Stability studies with benzoyl peroxide in buffer solutions; assay type: physicochemical; details: 1% analog with 5% BPO, pH 3 buffer, 50° C.
# Description: The concentrations of each of the clindamycin analogs and BPO in the mixtures were 1% (w/w) and 5% (w/w), respectively.
# Samples were prepared by dissolving each of the clindamycin analogs and suspending the BPO powder in the buffer solutions of different pHs. Samples were placed either at RT or at 50° C. Samples were pulled at time intervals and tested for the appropriate clindamycin analog and pH.
# The figures show the plots of the percent remaining (% of initial) of the clindamycin analog versus time. The percent of initial is obtained by normalizing the concentration at each time point to the initial concentration.
# [2] = Staphylococcus aureus, ATCC29213, read-out: MIC
# [3] = Cutibacterium acnes, ATCC11827, read-out: MIC
MIC (S. aureus ATCC 29213) [µg/mL],MIC (P. acnes ATCC 11827) [µg/mL],Structure (SMILES),also measured
2,0.5,CCCC1CC(C(=O)NC(C(C)Cl)C2OC([S+](C)[O-])C(O)C(O)C2O)N(C)C1.O=C(O)c1ccccc1 (centres unmarked) [CSO B benzoate],
16,8,CCC[C@@H]1C[C@@H](C(=O)N[C@@H]([C@H]2O[C@H]([S+](C)[O-])[C@H](O)[C@@H](O)[C@H]2O)[C@H](C)Cl)N(C)C1.Cl (some centres unmarked) [CSO A HCl],
,,"CCC[C@@H]1C[C@@H](C(=O)N[C@@H]([C@H]2O[C@H](SC)[C@H](OP(=O)(O)O)[C@@H](O)[C@H]2O)[C@H](C)Cl)N(C)C1 [Clindamycin phosphate USP, Clindamycin phosphate, reference compound]",MIC (S. aureus ATCC 6538): 200 µg/mL; MIC (P. acnes ATCC 1127): 200 µg/mL; MIC (S. aureus ATCC 29213; [2]): 16 to 32 µg/mL; MIC (P. acnes ATCC 11827; [3]): 2 to 4 µg/mL
16,8,CCCC1CC(C(=O)NC(C(C)Cl)C2OC([S+](C)[O-])C(O)C(O)C2O)N(C)C1.O=C(O)C=CC(=O)O (centres unmarked) [CSO A fumarate],
2,0.5,CCCC1CC(C(=O)NC(C(C)Cl)C2OC([S+](C)[O-])C(O)C(O)C2O)N(C)C1.O=C(O)CC(O)(CC(=O)O)C(=O)O (centres unmarked) [CSO B citrate],
,,"CC[C@H]1OC(=O)[C@H](C)[C@@H](O[C@H]2C[C@@](C)(OC)[C@@H](O)[C@H](C)O2)[C@H](C)[C@@H](O[C@@H]2O[C@H](C)C[C@H](N(C)C)[C@H]2O)[C@](C)(O)C[C@@H](C)C(=O)[C@H](C)[C@@H](O)[C@]1(C)O [Erythromycin USP, Erythromycin, reference compound]",MIC (S. aureus ATCC 6538): < 0.8 µg/mL; MIC (P. acnes ATCC 1127): 1.6 µg/mL; MIC (S. aureus ATCC 29213; [2]): 0.25 to 0.5 µg/mL; MIC (P. acnes ATCC 11827; [3]): 0.062 µg/mL
16,16,CCCC1CC(C(=O)NC(C(C)Cl)C2OC([S+](C)[O-])C(O)C(O)C2O)N(C)C1.O=C(O)C=CC(=O)O (centres unmarked) [CSO A maleate],
1,0.5,CCCC1CC(C(=O)NC(C(C)Cl)C2OC(S(C)(=O)=O)C(O)C(O)C2O)N(C)C1.Cl (centres unmarked) [CSO2 HCl],
1,0.5,CCCC1CC(C(=O)NC(C(C)Cl)C2OC(S(C)(=O)=O)C(O)C(O)C2O)N(C)C1.O=S(=O)(O)O (centres unmarked) [CSO2 sulfate],
,,"CCC[C@@H]1CC(C(=O)NC(C(C)Cl)[C@H]2O[C@H](S(C)(=O)=O)[C@H](O)[C@@H](O)[C@H]2O)N(C)C1 (some centres unmarked) [CSO2, Clindamycin sulfone]",MIC (S. aureus ATCC 29213; [2]): 1 to 2 µg/mL; MIC (P. acnes ATCC 11827; [3]): 0.5 to 1 µg/mL; remained in the solution (% of initial) ([1]; after 8 weeks of storage): about 85%; remaining in the samples (% of initial) ([1]; after 12 weeks of storage): about 70%
2,0.5,CCCC1CC(C(=O)NC(C(C)Cl)C2OC([S+](C)[O-])C(O)C(O)C2O)N(C)C1.O=C(O)C=CC(=O)O (centres unmarked) [CSO B fumarate],
2,0.5,CCCC1CC(C(=O)NC(C(C)Cl)C2OC([S+](C)[O-])C(O)C(O)C2O)N(C)C1.Cl (centres unmarked) [CSO B HCl],
16,16,CCCC1CC(C(=O)NC(C(C)Cl)C2OC([S+](C)[O-])C(O)C(O)C2O)N(C)C1.O=C(O)CCC(=O)O (centres unmarked) [CSO A succinate],
